Source: PubChem BioAssay AID1963973 (Molecular Pharmacology Branch, DTP, NCI, 2024)
“And” between values parts separate entries of the source, which are not always exact repeats. Equal values may be shown once. Values belong to the compound of their own block, whether it stands above or below them.

Test system: 883617-216-R-J1-PDC tumor spheroids, viability
Experiment: Anticancer human tumor 883617-216-R-J1-PDC patient-derived bladder carcinoma cell line growth inhibition [PI3K]
Details: spheroids with HUVEC and MSC; for viability, T/C: stronger effect = lower value
Procedure, shortened: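 Tumor cells were combined with HUVEC and MSCs into spheroids, then dosed with PI3K-inhibitor combinations over half-log ranges capped near clinical Cmax or 10 microM.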

[1] = curve of first compound, second compound 0.0316 µM
[2] = curve of first compound, second compound 0.1 µM
[3] = curve of first compound, second compound 0.316 µM
[4] = curve of first compound, second compound 1 µM
[5] = second compound 0.0316 µM, first compound 0.0316 µM
[6] = second compound 0.0316 µM, first compound 0.1 µM
[7] = second compound 0.0316 µM, first compound 0.316 µM
[8] = second compound 0.0316 µM, first compound 1 µM
[9] = second compound 0.0316 µM, first compound 3.16 µM
[10] = second compound 0.0316 µM, first compound 10 µM
[11] = second compound 0.1 µM, first compound 0.0316 µM
[12] = second compound 0.1 µM, first compound 0.1 µM
[13] = second compound 0.1 µM, first compound 0.316 µM
[14] = second compound 0.1 µM, first compound 1 µM
[15] = second compound 0.1 µM, first compound 3.16 µM
[16] = second compound 0.1 µM, first compound 10 µM
[17] = second compound 0.316 µM, first compound 0.0316 µM
[18] = second compound 0.316 µM, first compound 0.1 µM
[19] = second compound 0.316 µM, first compound 0.316 µM
[20] = second compound 0.316 µM, first compound 1 µM
[21] = second compound 0.316 µM, first compound 3.16 µM
[22] = second compound 0.316 µM, first compound 10 µM
[23] = second compound 1 µM, first compound 0.0316 µM
[24] = second compound 1 µM, first compound 0.1 µM
[25] = second compound 1 µM, first compound 0.316 µM
[26] = second compound 1 µM, first compound 1 µM
[27] = second compound 1 µM, first compound 3.16 µM
[28] = second compound 1 µM, first compound 10 µM
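Note: spheroids exposed to agents for 7 days before the viability read.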

IC50 (curve of compound): > 10000 nM
Compound: C[C@@H](NC(=O)c1ncnc(N)c1Cl)c1ncc(C(=O)Nc2cc(C(F)(F)F)c(Cl)cn2)s1
viability, T/C (compound 0.1 µM): 96.9% [middle of 4 runs]
viability, T/C (compound 0.316 µM): 88.3% [middle of 4 runs]
viability, T/C (compound 1 µM): 96.5% [middle of 4 runs]
viability, T/C (compound 3.16 µM): 93.2% (2×) and 95.3% and 100%
viability, T/C (compound 10 µM): 73% [middle of 4 runs]

IC50 [1]: < 31.6 nM
IC50 [2]: < 31.6 nM
IC50 [3]: < 31.6 nM
IC50 [4]: < 31.6 nM
IC50 (curve of first compound, second compound 3.16 µM): < 31.6 nM
IC50 (curve of first compound, second compound 10 µM): < 31.6 nM
Compound: CC1(C)CCC(Nc2ncc(C(F)(F)F)c(-c3c[nH]c4c(P(C)(C)=O)c(C#N)ccc34)n2)CN1 (stereo not given) + Cc1nc(NC(=O)N2CCCC2C(N)=O)sc1-c1ccnc(C(C)(C)C(F)(F)F)c1
viability, T/C [5]: 35%
viability, T/C [6]: 25.2%
viability, T/C [7]: 21.7%
viability, T/C [8]: 18.4%
viability, T/C [9]: 7.32%
viability, T/C [10]: 0.34%
viability, T/C [11]: 27.1%
viability, T/C [12]: 23.6%
viability, T/C [13]: 25.7%
viability, T/C [14]: 20.1%
viability, T/C [15]: 5.12%
viability, T/C [16]: 0.15%
viability, T/C [17]: 23.2%
viability, T/C [18]: 25.2%
viability, T/C [19]: 23.2%
viability, T/C [20]: 12.9%
viability, T/C [21]: 4.57%
viability, T/C [22]: 0.17%
viability, T/C [23]: 18.1%
viability, T/C [24]: 18.6%
viability, T/C [25]: 14.2%
viability, T/C [26]: 19.3%
viability, T/C [27]: 3.08%
viability, T/C [28]: 0.12%
viability, T/C (second compound 3.16 µM, first compound 0.0316 µM): 11.7%
viability, T/C (second compound 3.16 µM, first compound 0.1 µM): 11.7%
viability, T/C (second compound 3.16 µM, first compound 0.316 µM): 8.82%
viability, T/C (second compound 3.16 µM, first compound 1 µM): 11.7%
viability, T/C (second compound 3.16 µM, first compound 3.16 µM): 1.63%
viability, T/C (second compound 3.16 µM, first compound 10 µM): 0.09%
viability, T/C (second compound 10 µM, first compound 0.0316 µM): 5.1%
viability, T/C (second compound 10 µM, first compound 0.1 µM): 4.07%
viability, T/C (second compound 10 µM, first compound 0.316 µM): 4.35%
viability, T/C (second compound 10 µM, first compound 1 µM): 3.57%
viability, T/C (second compound 10 µM, first compound 3.16 µM): 0.59%
viability, T/C (second compound 10 µM, first compound 10 µM): 0.16%

IC50 (curve of first compound, second compound 0.00316 µM): 475 nM
IC50 (curve of first compound, second compound 0.01 µM): 167 nM
IC50 [1]: < 31.6 nM
IC50 [2]: < 31.6 nM
IC50 [3]: < 31.6 nM
IC50 [4]: < 31.6 nM
Compound: CC(C)NCC(C(=O)N1CCN(c2ncnc3c2C(C)CC3O)CC1)c1ccc(Cl)cc1 (stereo not given) + COc1c(OCCCN2CCOCC2)ccc2c3n(c(=NC(=O)c4cnc(N)nc4)nc12)CCN3
viability, T/C (second compound 0.00316 µM, first compound 0.0316 µM): 89.7%
viability, T/C (second compound 0.00316 µM, first compound 0.1 µM): 67.4%
viability, T/C (second compound 0.00316 µM, first compound 0.316 µM): 59.5%
viability, T/C (second compound 0.00316 µM, first compound 1 µM): 41.5%
viability, T/C (second compound 0.00316 µM, first compound 3.16 µM): 18.4%
viability, T/C (second compound 0.00316 µM, first compound 10 µM): 7.44%
viability, T/C (second compound 0.01 µM, first compound 0.0316 µM): 63.5%
viability, T/C (second compound 0.01 µM, first compound 0.1 µM): 53.7%
viability, T/C (second compound 0.01 µM, first compound 0.316 µM): 45.7%
viability, T/C (second compound 0.01 µM, first compound 1 µM): 26.7%
viability, T/C (second compound 0.01 µM, first compound 3.16 µM): 17.2%
viability, T/C (second compound 0.01 µM, first compound 10 µM): 6.61%
viability, T/C [5]: 44.2%
viability, T/C [6]: 37.1%
viability, T/C [7]: 26.4%
viability, T/C [8]: 27.7%
viability, T/C [9]: 8.87%
viability, T/C [10]: 4.74%
viability, T/C [11]: 22%
viability, T/C [12]: 15%
viability, T/C [13]: 12.2%
viability, T/C [14]: 9.69%
viability, T/C [15]: 5.3%
viability, T/C [16]: 3.5%
viability, T/C [17]: 5.34%
viability, T/C [18]: 5.49%
viability, T/C [19]: 4.1%
viability, T/C [20]: 4.13%
viability, T/C [21]: 3.12%
viability, T/C [22]: 2.45%
viability, T/C [23]: 2.86%
viability, T/C [24]: 3.36%
viability, T/C [25]: 3.4%
viability, T/C [26]: 2.86%
viability, T/C [27]: 3.11%
viability, T/C [28]: 1.47%
